Literature values, collected in patent US6844014B1, “Herbal healing lotion for veterinary use” (priority 2002, dated 2005).

Conditions: treatment by previous veterinarian before the office visit

## C[C@]12CCC(=O)C=C1CC[C@@H]1[C@@H]2C(=O)C[C@@]2(C)[C@H]1CC[C@]2(O)C(=O)CO [cortisone]
  result of previous treatment of the lesion: no positive result was obtained
